# Where two headings read alike, the source gives them in different places.
# Legend:
# [1] = target: T1, GLS1 (purified recombinant human GAC) (Homo sapiens, UniProt O94925); test: GLS1 Enzymatic Activity Assay (dual-coupled enzymatic assay); format: biochemical; settings: 50 mM potassium phosphate, 1 mM glutamine, read-out: IC50 against GLS1
# T1 sequence (O94925 55-598 isoform O94925-3 limits assumed): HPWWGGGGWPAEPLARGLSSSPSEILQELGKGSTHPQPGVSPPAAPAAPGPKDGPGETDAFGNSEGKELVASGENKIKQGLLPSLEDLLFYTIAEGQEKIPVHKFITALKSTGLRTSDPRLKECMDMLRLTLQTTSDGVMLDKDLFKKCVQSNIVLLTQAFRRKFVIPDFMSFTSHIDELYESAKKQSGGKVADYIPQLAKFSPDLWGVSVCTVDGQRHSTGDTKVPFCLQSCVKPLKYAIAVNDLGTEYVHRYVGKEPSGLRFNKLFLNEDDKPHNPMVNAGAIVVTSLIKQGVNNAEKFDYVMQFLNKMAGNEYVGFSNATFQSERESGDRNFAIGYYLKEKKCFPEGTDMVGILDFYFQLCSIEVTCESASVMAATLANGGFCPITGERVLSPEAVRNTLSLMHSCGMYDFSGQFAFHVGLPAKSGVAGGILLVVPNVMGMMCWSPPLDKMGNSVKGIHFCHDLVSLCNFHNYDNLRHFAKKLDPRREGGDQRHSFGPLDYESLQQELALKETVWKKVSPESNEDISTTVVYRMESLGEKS
# Protocol: GLS1 Enzymatic Activity Assay
# The inhibition of purified recombinant human GAC by varying concentrations of inhibitors is assessed via a dual-coupled enzymatic assay. The glutamate produced by the glutaminase reaction is used by glutamate oxidase to produce α-ketoglutarate, ammonia, and hydrogen peroxide, with this hydrogen peroxide subsequently being used by horseradish peroxidase to produce resorufin in the presence of Amplex UltraRed. The assay buffer consisted of 50 mM HEPES (pH 7.4), 0.25 mM EDTA and 0.1 mM Triton X-100. GAC was incubated with potassium phosphate (10 minutes at room temperature) prior to incubation with inhibitor (10 minutes at room temperature). The final reaction conditions were as follows: 2 nM GAC, 50 mM potassium phosphate, 100 mU/ml glutamate oxidase (Sigma), 1 mM glutamine (Sigma), 100 mU/ml horseradish peroxidase (Sigma), 75 μM Amplex UltraRed (Life Technologies), and 1% (v/v) DMSO. The production of resorufin was monitored on a Perkin Elmer Envision plate reader (excitation 530 nm, emission 590 nm) either in a kinetics or endpoint mode (at 20 minutes). IC50 values were calculated using a four-parameter logistic curve fit.
# A549 cells = test: Proliferation Assay (A549 viability, Cell Titer Fluor, 72 hours); format: cell-based; settings: read-out: EC50 against A549 cell proliferation
# Protocol: A549 cells were routinely maintained in RPMI 1640 media (Gibco catalog number 11875-093) supplemented with 10% dialyzed fetal bovine serum using a humidified incubator (37° C., 5% CO2 and ambient O2). In preparation for the viability assay, cells were inoculated into 384-well black CulturPlates (Perkin Elmer) at a density of 1000 cells/well in a volume of 40 μl. Following a 24-hour incubation at 37° C., 5% CO2 and ambient 02, cells were treated with compound (10 μl) in a final DMSO concentration of 0.5% (v/v). The microplates were then incubated for 72 hours (37° C., 5% CO2 and ambient O2). Cell Titer Fluor (Promega) was subsequently added (10 μl of 6× reagent) and mixed for 15 minutes at room temperature. The plates were then incubated for 30 minutes (37° C., 5% CO2 and ambient O2) and fluorescence was subsequently read on the Perkin Elmer Envision plate reader. EC50 values were calculated using a four-parameter logistic curve fit.
Compound,IC50 [1] [nM],EC50 (A549 cells) [nM],EC50 (A549 cells; Homo sapiens) [nM]
"2-(2-phenylthiazol-4-yl)-N-(5-(1-(6-(2-(3-(trifluoromethoxy)phenyl)acetamido)pyridazin-3-yl)pyrrolidin-3-yl)-1,3,4-thiadiazol-2-yl)acetamide [Example 30]",< 100,< 100,
"2-(thiazol-4-yl)-N-(5-(1-(6-(2-(3-(trifluoromethoxy)phenyl)acetamido)pyridazin-3-yl)pyrrolidin-3-yl)-1,3,4-thiadiazol-2-yl)acetamide [Example 31]",< 100,100 to 500,
"Nc1nnc(C2CCCN(c3ccc(NC(=O)Cc4ccccc4)nn3)C2)s1 (stereo not drawn) [Example 1, N-(6-(3-(5-Amino-1,3,4-thiadiazol-2-yl)piperidin-1-yl)pyridazin-3-yl)-2-phenylacetamide]",100 to 500,,500 to 5000
"O=C(Cc1ccccc1)Nc1ccc(N2CCCC(c3nnc(NC(=O)Cc4ccccc4)s3)C2)nn1 (stereo not drawn) [Example 2, 2-Phenyl-N-(6-(3-(5-(2-phenylacetamido)-1,3,4-thiadiazol-2-yl)piperidin-1-yl)pyridazin-3-yl)acetamide]",< 100,,100 to 500
"O=C(Cc1ccccc1)Nc1ccc(N2CCCC(c3nnc(NC(=O)Cc4ccccn4)s3)C2)nn1 (stereo not drawn) [Example 3, 2-Phenyl-N-(6-(3-(5-(2-(pyridin-2-yl)acetamido)-1,3,4-thiadiazol-2-yl)piperidin-1-yl)pyridazin-3-yl)acetamide]",< 100,,100 to 500
"CC(=O)Nc1nnc(C2CCCN(c3ccc(NC(=O)Cc4ccccc4)nn3)C2)s1 (stereo not drawn) [Example 4, N-(6-(3-(5-Acetamido-1,3,4-thiadiazol-2-yl)piperidin-1-yl)pyridazin-3-yl)-2-phenylacetamide]",100 to 500,,500 to 5000
"O=C(Nc1ccc(N2CCC(n3cc(C(=O)NCc4ccccn4)nn3)C2)nn1)OCc1ccccc1 (stereo not drawn) [Example 5, Benzyl (6-(3-(4-((pyridin-2-ylmethyl)carbamoyl)-1H-1,2,3-triazol-1-yl)pyrrolidin-1-yl)pyridazin-3-yl)carbamate]",500 to 5000,,500 to 5000
"CNC(=O)c1cn(C2CCN(c3ccc(NC(=O)Cc4cccc(OC(F)(F)F)c4)nn3)C2)nn1 (stereo not drawn) [Example 6, N-Methyl-1-(1-(6-(2-(3-(trifluoromethoxy)phenyl)acetamido)pyridazin-3-yl)pyrrolidin-3-yl)-1H-1,2,3-triazole-4-carboxamide]",100 to 500,,500 to 5000
"O=C(Cc1cccc(OC(F)(F)F)c1)Nc1ccc(N2CCCC(n3cc(C(=O)NCc4ccccn4)nn3)C2)nn1 (stereo not drawn) [Example 7, N-(Pyridin-2-ylmethyl)-1-(1-(6-(2-(3-(trifluoromethoxy)phenyl)acetamido)pyridazin-3-yl)piperidin-3-yl)-1H-1,2,3-triazole-4-carboxamide]",100 to 500,,500 to 5000
"O=C(Cc1cccc(OC(F)(F)F)c1)Nc1ccc(N2CCC(n3cc(C(=O)NCc4ccccn4)nn3)C2)nn1 (stereo not drawn) [Example 8, N-(pyridin-2-ylmethyl)-1-(1-(6-(2-(3-(trifluoromethoxy)phenyl)acetamido)pyridazin-3-yl)pyrrolidin-3-yl)-1H-1,2,3-triazole-4-carboxamide]",100 to 500,,500 to 5000
"O=C(Cc1ccccn1)Nc1ccc(N2CCC(c3nnc(NC(=O)Cc4ccccn4)s3)C2)nn1 (stereo not drawn) [Example 9, 2-(pyridin-2-yl)-N-(6-(3-(5-(2-(pyridin-2-yl)acetamido)-1,3,4-thiadiazol-2-yl)pyrrolidin-1-yl)pyridazin-3-yl)acetamide]",< 100,,500 to 5000
"CC(=O)Nc1cn(C2CCN(c3ccc(NC(=O)Cc4cccc(OC(F)(F)F)c4)nn3)C2)nn1 (stereo not drawn) [Example 11, N-(6-(3-(4-acetamido-1H-1,2,3-triazol-1-yl)pyrrolidin-1-yl)pyridazin-3-yl)-2-(3-(trifluoromethoxy)phenyl)acetamide]",100 to 500,,500 to 5000
"CC(=O)Nc1nnc(C2CCN(c3ccc(NC(=O)Cc4ccccn4)nn3)C2)s1 (stereo not drawn) [Example 12, N-(6-(3-(5-acetamido-1,3,4-thiadiazol-2-yl)pyrrolidin-1-yl)pyridazin-3-yl)-2-(pyridin-2-yl)acetamide]",100 to 500,,
"Nc1nnc(C2CCCN(c3ccc(NC(=O)Cc4cccc(OC(F)(F)F)c4)nn3)C2)s1 (stereo not drawn) [Example 13, N-(6-(3-(5-amino-1,3,4-thiadiazol-2-yl)piperidin-1-yl)pyridazin-3-yl)-2-(3-(trifluoromethoxy)phenyl)acetamide]",100 to 500,,500 to 5000
"O=C(Cc1cccc(OC(F)(F)F)c1)Nc1ccc(N2CCCC(c3nnc(NC(=O)Cc4ccccn4)s3)C2)nn1 (stereo not drawn) [Example 14, 2-(pyridin-2-yl)-N-(5-(1-(6-(2-(3-(trifluoromethoxy)phenyl)acetamido)pyridazin-3-yl)piperidin-3-yl)-1,3,4-thiadiazol-2-yl)acetamide]",< 100,,< 100
"CC(=O)Nc1nnc(C2CCCN(c3ccc(NC(=O)Cc4cccc(OC(F)(F)F)c4)nn3)C2)s1 (stereo not drawn) [Example 15, N-(6-(3-(5-acetamido-1,3,4-thiadiazol-2-yl)piperidin-1-yl)pyridazin-3-yl)-2-(3-(trifluoromethoxy)phenyl)acetamide]",< 100,,100 to 500
"Nc1nnc(C2CCCN(c3nnc(NC(=O)Cc4cccc(OC(F)(F)F)c4)s3)C2)s1 (stereo not drawn) [Example 16, N-(5-(3-(5-amino-1,3,4-thiadiazol-2-yl)piperidin-1-yl)-1,3,4-thiadiazol-2-yl)-2-(3-(trifluoromethoxy)phenyl)acetamide]",100 to 500,,500 to 5000
"O=C(Cc1cccc(OC(F)(F)F)c1)Nc1ccc(N2CCC(c3nnc(NC(=O)Cc4ccccn4)s3)C2)nn1 (stereo not drawn) [Example 17, 2-(pyridin-2-yl)-N-(5-(1-(6-(2-(3-(trifluoromethoxy)phenyl)acetamido)pyridazin-3-yl)pyrrolidin-3-yl)-1,3,4-thiadiazol-2-yl)acetamide 2,2,2-trifluoroacetate]",< 100,,< 100
"Cn1cc(CC(=O)Nc2nnc(C3CCN(c4ccc(NC(=O)Cc5cccc(OC(F)(F)F)c5)nn4)C3)s2)cn1 (stereo not drawn) [Example 18, 2-(1-methyl-1H-pyrazol-4-yl)-N-(5-(1-(6-(2-(3-(trifluoromethoxy)phenyl)acetamido)pyridazin-3-yl)pyrrolidin-3-yl)-1,3,4-thiadiazol-2-yl)acetamide 2,2,2-trifluoroacetate]",< 100,,100 to 500
"Nc1nnc(C2CCN(c3ccc(NC(=O)Cc4cccc(OC(F)(F)F)c4)nn3)C2)s1 (stereo not drawn) [Example 19, N-(6-(3-(5-amino-1,3,4-thiadiazol-2-yl)pyrrolidin-1-yl)pyridazin-3-yl)-2-(3-(trifluoromethoxy)phenyl)acetamide]",100 to 500,,500 to 5000
"O=C(Cc1cccc(OC(F)(F)F)c1)Nc1ccc(N2CCC(c3nnc(NC(=O)Cc4ccccc4F)s3)C2)nn1 (stereo not drawn) [Example 20, 2-(2-fluorophenyl)-N-(5-(1-(6-(2-(3-(trifluoromethoxy)phenyl)acetamido)pyridazin-3-yl)pyrrolidin-3-yl)-1,3,4-thiadiazol-2-yl)acetamide 2,2,2-trifluoroacetate]",< 100,,100 to 500
"O=C(Cc1cccc(OC(F)(F)F)c1)Nc1ccc(C2CCN(c3nnc(NC(=O)Cc4ccccn4)s3)C2)nn1 (stereo not drawn) [Example 21, 2-(pyridin-2-yl)-N-(5-(3-(6-(2-(3-(trifluoromethoxy)phenyl)acetamido)pyridazin-3-yl)pyrrolidin-1-yl)-1,3,4-thiadiazol-2-yl)acetamide]",< 100,,100 to 500
"O=C(Cc1cccc(OC(F)(F)F)c1)Nc1ccc(C2CCN(c3nnc(C(=O)NCc4ccccn4)s3)C2)nn1 (stereo not drawn) [Example 22, N-(pyridin-2-ylmethyl)-5-(3-(6-(2-(3-(trifluoromethoxy)phenyl)acetamido)pyridazin-3-yl)pyrrolidin-1-yl)-1,3,4-thiadiazole-2-carboxamide]",< 100,,< 100

# Reference: patent US10738043B2, “GLS1 inhibitors for treating disease” (Board of Regents, The University of Texas System, priority 2015, dated 2020)
